Assay type in all cases: cell-based
Experiment [1] deals with Salmonella pullorum gallinarum. Kind of experiment: Antibacterial growth inhibition in phenol red dextrose broth. The conditions noted are these: Salmonella enterica, 168 h; Sp. G.; tested at 100, 10, 1 μg/ml; read-out: Concentration in μ g for 100% Growth Inhibition. On the procedure: (§1) The tests on bacteria were performed on cultures on phenol red dextrose broth medium (Difco). By using decimal dilution techniques described for the tests for antifungal activity, test media containing 100 μg, 10 μg and 1 μg of imidazolium salt per milliliter of medium were obtained. The inoculum consisted of a platinum loop (5 mm diameter) from a 24 hour broth culture. Forty-eight hours after incubation, subcultures were made from each culture for the determination of antibacterial activity of the imidazolium salts. After seven days of incubation, observations were made to determine the presence or absence of bacterial growth.

For another experiment, the system named is Erysipelothrix insidiosa. Described as above. The conditions noted are these: Erysipelothrix rhusiopathiae, 168 h; E. ins.; tested at 100, 10, 1 μg/ml; read-out: Concentration in μ g for 100% Growth Inhibition. On the procedure: as §1
The subject of a further experiment is Escherichia coli. The description is as above. The note with it: 168 h, E. coli, tested at 100, 10, 1 μg/ml, read-out: Concentration in μ g for 100% Growth Inhibition. The method, then:
as §1

Experiment [2] deals with Staphylococcus hemolyticus. The description is as above. The note with it: 168 h, Staph., tested at 100, 10, 1 μg/ml, read-out: Concentration in μ g for 100% Growth Inhibition. On the procedure: as §1
The next experiment has as its system Pseudomonas aeruginosa. The description is as above. The note with it: 168 h, Ps. aer., tested at 100, 10, 1 μg/ml, read-out: Concentration in μ g for 100% Growth Inhibition. On the procedure:
as §1

The next experiment relates to Streptococcus pyogenes. Described as above. The conditions noted are these: 168 h, Strep., tested at 100, 10, 1 μg/ml, read-out: Concentration in μ g for 100% Growth Inhibition. On the procedure: as §1
In a further experiment the test system is Trichophyton rubrum. Kind of experiment: Antifungal growth inhibition in Sabouraud's liquid medium. The conditions noted are these: Trichophyton rubrum, 336 h; Tr.r.; tested at 100, 10, 1 μg/ml; read-out: Concentrations in μg/ml for 100% Inhibition of Growth. On the procedure:
(§2) Tests for the control of fungal organisms were performed using Sabouraud's liquid medium (1 g. of neopeptone Difco and 2 g. of glucose Difco per 100 ml. distilled water) in test tubes, each containing 4.5 ml. of liquid medium, autoclaved at 120° C for 15 minutes. The imidazolium salts were prepared for testing by dissolving in 50% ethanol to a concentration of 20 mg./ml. and thereafter diluting with sterile distilled water to obtain a concentration of 10 mg./ml. Successive decimal dilutions were then made with sterile distilled water to prepare a series of test solutions. In carrying out the test, 0.5 ml. of one of the test solutions is added to 4.5 ml. of Sabouraud's liquid medium to obtain a test medium. In this manner, from appropriate test solution, test media containing 100 μg, 10 μg and 1 μg of imidazolium salt per milliliter of medium were obtained.
(§3) Control tubes were prepared by adding 0.5 ml. of sterile distilled water to 4.5 ml. of medium. Ethanol was also added to simulate the amount which would be present in the test media. Filamentous fungi were incubated at 25° C for two to three weeks. A square block of side 2 mm. was excised and inoculated into the liquid medium. A 3-day old culture on Sabouraud's liquid medium was used for yeasts. The inoculum was 0.05 ml. per tube. All cultures were incubated at 25° C for 14 days.

The test system of experiment [3] is Ctenomyces mentagrophytes. The description is as above. The conditions noted are these: Trichophyton mentagrophytes, 336 h; Ct.m.; tested at 100, 10, 1 μg/ml; read-out: Concentrations in μg/ml for 100% Inhibition of Growth. The method, then: as §2, §3
Another experiment relates to Cryptococcus neoformans. Described as above. The conditions noted are these: Cryptococcus neoformans, 336 h; Cr.n.; tested at 100, 10, 1 μg/ml; read-out: Concentrations in μg/ml for 100% Inhibition of Growth. The method, then:
as §2, §3

In a further experiment the test system is Microsporum canis. The experiment is described as above. The conditions noted are these: Microsporum canis, 336 h; M.c.; tested at 100, 10, 1 μg/ml; read-out: Concentrations in μg/ml for 100% Inhibition of Growth. The method, then:
as §2, §3

The values below come from US3991202A, “Imidazolium salts” (Janssen Pharmaceutica N.V., priority 1974, dated 1976).

In the case of `O.OC(C[n+]1ccn(CC(OCc2ccc(Cl)cc2)c2ccc(Cl)cc2Cl)c1)c1ccc(Cl)cc1.[Br-]` (stereo not drawn) [2,4(Cl)2C6H3/CH2C6H4pCl/CH2CHOHC6H4pCl, 1-[β-(p-Chlorobenzyloxy)-2,4-dichlorophenethyl]-3-(p-chloro-β-hydroxyphenethyl)imidazolium bromide hydrate], the MIC was found to be 10 µg/mL in experiment [1]; 1 µg/mL with Erysipelothrix insidiosa; 10 µg/mL in the experiment on Escherichia coli; 1 µg/mL in experiment [2]; 100 µg/mL with Pseudomonas aeruginosa; 1 µg/mL in the experiment with Streptococcus pyogenes.
In the case of `O=C(C[n+]1ccn(CC(OCc2ccc(Cl)cc2Cl)c2ccc(Cl)cc2)c1)Nc1ccc(F)cc1` (stereo not drawn) [C6H4pCl/CH2C6H32,4(Cl)2/CH2CONHC6H4pF, 1-[p-chloro-β-(2,4-dichlorobenzyloxy)phenethyl]-3-[N-(p-fluorophenyl)carbamoyl-methyl]imidazolium chloride], the MIC amounted to 10 µg/mL in [1]; 1 µg/mL with Erysipelothrix insidiosa; 10 µg/mL with Escherichia coli; 10 µg/mL in experiment [2]; 100 µg/mL with Pseudomonas aeruginosa; 1 µg/mL in the experiment with Streptococcus pyogenes.
Turning to `Clc1ccc(COC(C[n+]2ccn(CCNc3c(Cl)cccc3Cl)c2)c2ccc(Cl)cc2Cl)c(Cl)c1.O.[Br-]` (stereo not drawn) [(CH2)2NHC6H32,6(Cl)2, 1-[2-(2,6-Dichloroanilino)ethyl]-3-[2,4-dichloro-β-(2,4-dichlorobenzyloxy)phenethyl]imidazolium bromide hydrate], the MIC came to 10 µg/mL in experiment [1]; 1 µg/mL with Erysipelothrix insidiosa; 10 µg/mL in the experiment with Escherichia coli; 1 µg/mL in [2]; 100 µg/mL in the experiment with Pseudomonas aeruginosa; 1 µg/mL with Streptococcus pyogenes.
Regarding `O=C(CCn1cc[n+](CC(OCc2ccc(Cl)cc2Cl)c2ccc(Cl)cc2Cl)c1)Nc1ccccc1Cl.[Cl-]` (stereo not drawn) [(CH2)2CONHC6H4oCl, 1-{2-[N-(o-Chlorophenyl)carbamoyl]ethyl}-3-[2,4-dichloro-β-(2,4-dichlorobenzyloxy)phenethyl]imidazolium chloride], the MIC stood at 10 µg/mL in experiment [1]; 1 µg/mL in the experiment on Erysipelothrix insidiosa; 10 µg/mL in the experiment on Escherichia coli; 1 µg/mL in experiment [2]; 100 µg/mL in the experiment with Pseudomonas aeruginosa; 1 µg/mL with Streptococcus pyogenes.
For the molecule `O=C(C[n+]1ccn(CC(OCc2ccc(Cl)cc2Cl)c2ccc(Cl)cc2)c1)c1ccc(F)cc1.[Cl-]` (stereo not drawn) [pClC6H4/CH2C6H32,4(Cl)2/CH2COC6H4pF, 1-[p-chloro-β-(2,4-dichlorobenzyloxy)phenethyl]-3-(p-fluorophenacyl)imidazolium chloride], the MIC (in the experiment with Trichophyton rubrum; in experiment [3]; in the experiment on Cryptococcus neoformans; in the experiment with Microsporum canis) was 10 µg/mL throughout.
In the case of `OC(C[n+]1ccn(CC(OCc2c(Cl)cccc2Cl)c2ccc(Cl)cc2Cl)c1)c1ccc(Cl)cc1` (stereo not shown) [2,4(Cl)2C6H3/drawing 66/CH2CHOHC6H4pCl], the MIC was 1 µg/mL in the experiment with Trichophyton rubrum, 10 µg/mL in experiment [3], 10 µg/mL in the experiment with Cryptococcus neoformans and 10 µg/mL in the experiment on Microsporum canis.
In the case of `Fc1ccc(C(c2ccc(Cl)cc2)[n+]2ccn(CC(OCc3ccc(Cl)cc3Cl)c3ccc(Cl)cc3Cl)c2)cc1` (stereo not shown) [drawing 61], the MIC with Trichophyton rubrum was 1 µg/mL; in experiment [3] it was 10 µg/mL; in the experiment with Cryptococcus neoformans, 100 µg/mL; in the experiment with Microsporum canis, 10 µg/mL.
Consider `Clc1ccc(COC(Cn2cc[n+](CCCOc3ccc4ccccc4c3)c2)c2ccc(Cl)cc2Cl)c(Cl)c1.O.[Cl-]` (stereo not drawn) [(CH2)3OC10H7, 1-[2,4-Dichloro-β-(2,4-dichlorobenzyloxy)phenethyl]-3-[3-(2-naphthyloxy)propyl]imidazolium chloride hydrate], for which the MIC turned out to be 10 µg/mL in the experiment on Trichophyton rubrum, 10 µg/mL in experiment [3], 100 µg/mL with Cryptococcus neoformans and 10 µg/mL with Microsporum canis.
For the molecule `OC(C[n+]1ccn(CC(OCc2ccc(Cl)cc2Cl)c2ccc(Cl)cc2Cl)c1)c1ccc(Cl)cc1` (stereo not shown), the MIC is 1 µg/mL in the experiment with Trichophyton rubrum, 1 µg/mL in [3], 10 µg/mL with Cryptococcus neoformans and 10 µg/mL in the experiment on Microsporum canis.
With `O=C(CCn1cc[n+](CC(OCc2ccc(Cl)cc2Cl)c2ccc(Cl)cc2Cl)c1)c1ccc(Cl)cc1.[Cl-]` (stereo not drawn) [(CH2)2COC6H4pCl, 1-[2-(p-Chlorobenzoyl)ethyl]-3-[2,4-dichloro-β-(2,4dichlorobenzyloxy)phenethyl]imidazolium chloride], the MIC (in the experiment with Trichophyton rubrum; in experiment [3]; with Cryptococcus neoformans; with Microsporum canis) was 1 µg/mL throughout.
With `O=C(Cn1cc[n+](CC(OCc2ccc(Cl)cc2Cl)c2ccc(Cl)cc2Cl)c1)c1ccc(Cl)cc1Cl.[Cl-]` (stereo not drawn) [CH2COC6H32,4(Cl)2, 1-(2,4-dichlorobenzoylmethyl)-3-[2,4-dichloro-β-(2,4-dichlorobenzyloxy)phenethyl]imidazolium chloride], the MIC came out at 1 µg/mL in the experiment on Trichophyton rubrum, 1 µg/mL in [3], 1 µg/mL with Cryptococcus neoformans and 10 µg/mL with Microsporum canis.
`O=C(CC[n+]1ccn(CC(OCc2ccc(Cl)cc2Cl)c2ccc(Cl)cc2Cl)c1)Nc1ccccc1[N+](=O)[O-].[Cl-]` (stereo not drawn) [(CH2)2CONHC6H4oNO2, 1-[2,4-Dichloro-β-(2,4-dichlorobenzyloxy)-phenethyl]-3-{2-[N-(o-nitrophenyl)carbamoyl]ethyl}imidazolium chloride]: the MIC with Trichophyton rubrum stood at 1 µg/mL; in experiment [3], 1 µg/mL; in the experiment with Cryptococcus neoformans, 100 µg/mL; in the experiment on Microsporum canis, 10 µg/mL.
With `O=C(Cn1cc[n+](CC(OCc2ccc(Cl)cc2Cl)c2ccc(Cl)cc2Cl)c1)c1ccc(Br)cc1.[Cl-]` (stereo not drawn) [CH2COC6H4pBr, 1-(p-bromobenzoylmethyl)-3-[2,4-dichloro-β-(2,4-dichlorobenzyloxy)phenethyl]imidazolium chloride], the MIC in the experiment with Trichophyton rubrum stood at 1 µg/mL; in experiment [3], 1 µg/mL; in the experiment with Cryptococcus neoformans, 1 µg/mL; in the experiment with Microsporum canis, 10 µg/mL.
With `Cc1cccc(C)c1OCC[n+]1ccn(CC(OCc2ccc(Cl)cc2Cl)c2ccc(Cl)cc2Cl)c1.[Br-]` (stereo not drawn) [(CH2)2OC6H32,6(CH3)2, 1-[2,4-Dichloro-β-(2,4-dichlorobenzyloxy)phenethyl]-3-[2-(2,6-xylyloxy)ethyl]imidazolium bromide], the MIC with Trichophyton rubrum is 10 µg/mL; in [3], 1 µg/mL; with Cryptococcus neoformans, 1 µg/mL; in the experiment with Microsporum canis, 10 µg/mL.
Regarding `Cc1ccccc1NC(=O)C[n+]1ccn(CC(OCc2ccc(Cl)cc2)c2ccc(Cl)cc2Cl)c1` (stereo not drawn) [2,4(Cl)2C6H3/CH2C6H4pCl/CH2CONHoCH3, 1-[2,4-Dichloro-β-(p-chlorobenzyloxy)phenethyl]-3-(N-o-tolylcarbamoymethyl)imidazolium cholride], the MIC was determined as 1 µg/mL with Trichophyton rubrum, 1 µg/mL in [3], 10 µg/mL in the experiment on Cryptococcus neoformans and 10 µg/mL in the experiment on Microsporum canis.
With `COc1ccc(C(=O)C[n+]2ccn(CC(OCc3ccc(Cl)cc3Cl)c3ccc(Cl)cc3Cl)c2)cc1.[Br-]` (stereo not drawn) [CH2COC6H4p(OCH3), 1-[2,4-Dichloro-β-(2,4-dichlorobenzyloxy)phenethyl]-3-(p-methoxyphenacyl)imidazolium bromide], the MIC in the experiment with Trichophyton rubrum amounted to 1 µg/mL; in [3] it was 10 µg/mL; with Cryptococcus neoformans, 10 µg/mL; with Microsporum canis, 10 µg/mL.
As for `OC(C[n+]1ccn(CC(OCc2ccc(Cl)cc2)c2ccc(Cl)cc2Cl)c1)c1ccc(Cl)cc1` (stereo not shown) [2,4(Cl)2C6H3/drawing 65/CH2CHOHC6H4pCl], the MIC is 1 µg/mL in the experiment with Trichophyton rubrum, 1 µg/mL in experiment [3], 100 µg/mL in the experiment with Cryptococcus neoformans and 1 µg/mL in the experiment with Microsporum canis.
